Measurements reported in PubChem BioAssay AID1996.
Values after ≈ are worked out from the molar mass of the structure shown.

Conditions: buffer; pH 7.4; 200.0 µM

Structure (SMILES) | solubility kinetic [µg/mL]
COc1ccc(C(=O)Nc2ccc(C(=O)N3CCCCC3C)cc2)c(OC)c1OC (centres undefined) | > 61.9
OC(COc1ccc(Cl)cc1)CSc1ccccn1 (centres undefined) | 37.5 (≈ 127 µM)
CN(C)c1ccc(NC(=O)Cc2ccccc2)c2ccccc12 | 5.3 (≈ 17.4 µM)
c1ccc(CNc2ncnc3scc(-c4cccs4)c23)nc1 | 37.2 (≈ 115 µM)
O=C(O)C(=O)O.O=[N+]([O-])c1ccccc1CNCCc1c[nH]c2ccccc12 | 41.8
CCSC1=NCCN1C(=O)Cc1ccc(-c2ccccc2)cc1 | 3.3 (≈ 10.2 µM)
NC(=O)c1ccc(NCCc2ccccc2)c([N+](=O)[O-])c1 | 5 (≈ 17.5 µM)
O=C(COc1ccc(-c2ccccc2)cc1)Nc1cccnc1 | 4.2 (≈ 13.8 µM)
CN1c2ccc(Cl)cc2C(=O)NC1C1CC=CCC1 (centres undefined) | 3.4 (≈ 12.3 µM)
CC(=O)OCC(=O)Nc1ccc(Br)c(C)c1 | > 42.9
NS(=O)(=O)c1cc2c(cc1C(F)(F)F)NC(Cc1ccccc1)NS2(=O)=O (centres undefined) | > 63.2
NC(=O)c1ccc(NC(=O)CCNC(=O)c2ccco2)cc1 | 41.2 (≈ 137 µM)
CCCCCN1CC(O)=C(c2nc3ccccc3[nH]2)C1=N | 1.1 (≈ 3.87 µM)
Cn1c(-c2cccs2)[n+](C)c2ccccc21.[Cl-] | > 39.7
S=C(NCc1ccco1)Nc1ccc2c(c1)OCCO2 | > 43.6
Cc1nn(CC(=O)Nc2ccc(N3CCOCC3)cc2)c(C)c1[N+](=O)[O-] | > 53.9
CCOC(=O)c1sc(NC(=O)CN2CCN(c3ccc(OC)cc3)CC2)nc1C | 15.3 (≈ 36.6 µM)
CC(C(=O)N(C)C)N1c2cccc3cccc(c23)S1(=O)=O (centres undefined) | 19.9 (≈ 65.4 µM)
Cc1ccc(NC(=O)CCSc2nnc(C)o2)cc1 | > 41.6
COc1cccc(NC(=O)CN(C)CC(=O)Nc2ccc3c(c2)OCO3)c1 | > 55.7

Structure (SMILES) | solubility kinetic [µg/mL]
Cc1ccc(NC(=O)c2ccco2)nc1 | 28.9 (≈ 143 µM)
COC(=O)c1ccc(N2CCN(C)CC2)c(NC(=O)c2cccnc2)c1 | 51.4 (≈ 145 µM)
S=C1NCN(Cc2ccco2)CN1c1ccccc1 | > 41
COc1ccc(C2C(C(C)=O)=C(C)Nc3ncnn32)cc1[N+](=O)[O-] (centres undefined) | > 49.4
CCOC(=O)c1cc(-c2csc(-c3cccc(Cl)c3)n2)on1 | < 0.4
CC(=O)N(OCc1ccc(OC(C)C)c(Cl)c1)C(C)=O | 38.1 (≈ 127 µM)
O=C(Nc1nc(-c2cccnc2)cs1)c1ccccc1[N+](=O)[O-] | 0.7 (≈ 2.15 µM)
Nc1nc(SCc2ccc(F)cc2)ns1 | 33.6 (≈ 139 µM)
Cc1ccc(C(=O)Nc2ccccc2C(=O)NCC2CCCO2)cc1 (centres undefined) | > 50.8
CC1=C(C)CC(C(=O)NCc2ccccn2)C(C(=O)O)C1 (centres undefined) | > 43.3
CCOP(=O)(OCC)C(Nc1cccc([N+](=O)[O-])c1)c1ccccc1 (centres undefined) | 7.8 (≈ 21.4 µM)
CCCC(=O)Nc1cc2c3c(c1)CCN3C(=O)CC2 | > 38.7
CC1CCC(NC(=O)C2COc3ccccc3O2)CC1 (centres undefined) | 5.5 (≈ 20 µM)
CCCN1CCN(c2ccc(S(N)(=O)=O)cc2[N+](=O)[O-])CC1 | 32.9 (≈ 100 µM)
CNC(=O)Nc1cc(NC(=O)NC)cc(C(F)(F)F)c1 | > 43.5
O=C(O)c1ccc2c(c1)C(=O)N(c1cccc3ccccc13)C2=O | > 47.6
N#CC(c1ccccc1)N1CCOCC1 (centres undefined) | 20.7 (≈ 102 µM)
O=C1C(Cc2cnc[nH]2)NC(=S)N1c1ccccc1 (centres undefined) | 37.4 (≈ 137 µM)
CCOc1ccccc1C1CC(=O)Nc2cc(OC)c(OC)cc21 (centres undefined) | 0.9 (≈ 2.75 µM)
O=C(/C=C/c1cccs1)c1ccc([N+](=O)[O-])cc1 | 1.9 (≈ 7.33 µM)

Structure (SMILES) | solubility kinetic [µg/mL]
CN(CC(=O)Nc1ccc(F)cc1Cl)Cc1cccs1 | 14.6 (≈ 46.7 µM)
O=C(/C=C/c1cccc([N+](=O)[O-])c1)N1CCN(Cc2ccccc2)CC1 | 50.9 (≈ 145 µM)
Oc1cccc(Nc2nc(-c3ccccc3)nc3ccccc23)c1 | 2.2 (≈ 7.02 µM)
CN(c1ccccc1)S(=O)(=O)c1ccc(-c2ccccc2)cc1 | < 0.7
Cc1cc(C)c(C)c(S(=O)(=O)Nc2cccc(S(=O)(=O)Nc3ccccc3C(=O)O)c2)c1C | 72.1 (≈ 148 µM)
Cc1cccnc1NC(=O)Nc1cccc(Cl)c1 | 0.5 (≈ 1.91 µM)
C[C@@H](NCCc1ccc(O)cc1)[C@@H](O)c1ccc(O)cc1.Cl | > 48.6
O=C1C2C3c4ccccc4C(c4ccccc43)[C@@H]2C(=O)N1c1ccccn1 (some centres undefined) | 2.9 (≈ 8.23 µM)
Cc1ccc(C2CN(C)CC2C(=O)c2ccc(F)cc2)cc1 (centres undefined) | 35.8 (≈ 120 µM)
O=C(O)CSCC(=O)Nc1ccccn1 | > 33.9
CC1c2ccccc2N(NC(=O)Cc2ccccc2)C1C (centres undefined) | > 42.1
COc1ccccc1C(=O)Nc1ccncc1 | 33.4 (≈ 146 µM)
O=C(CNC(=O)c1ccco1)Nc1ccc(Br)cc1 | 14.1 (≈ 43.6 µM)
Cc1ccc(-n2c(O)c(C=NCc3ccccn3)c(=O)[nH]c2=S)cc1 | 29.6 (≈ 84 µM)
Cc1ccc(OCCNS(=O)(=O)c2ccc(Cl)cc2)cc1 | 5.6 (≈ 17.2 µM)
Cc1ccnc(Nc2nc(-c3ccc(O)cc3O)cs2)c1 | 2 (≈ 6.68 µM)
Cc1noc(C)c1COc1cccc(C(=O)Nc2ccc(Br)cc2F)c1 | 9.6 (≈ 22.9 µM)
COc1ccc(N2CC(NC(=O)N3CCc4ccccc43)CC2=O)cc1OC (centres undefined) | > 57.2
Cc1cccc(C(=O)OCC(=O)NCc2ccco2)c1 | > 41
